Laboratory results from patent US7550425B2, “Diuretic peptide conjugates” (Zealand Pharma A/S, priority 2000, dated 2009).
Peptide text beside a SMILES is read from it.

What was measured:
hORL1 receptor [1] = target: T1, hORL1 receptor (Homo sapiens, UniProt P41146); assay: Binding to human ORL1 receptor expressed in CHO cells; parameters: expressed in transfected cells; host or cells: CHO
hORL1 receptor [2] = target: T1, hORL1 receptor; assay: Efficacy: inhibition of forskolin-induced cAMP formation, hORL1 in CHO cells; assay type: cell-based; parameters: expressed in transfected cells; host or cells: CHO
From the text: The ORL1 receptor is negatively coupled to cAMP and thus the effect of ORL1 agonists are detected as an inhibition of forskolin-incuced cAMP formation. Six compounds of the invention have been tested for efficacy on hORL1 receptor expressed in CHO cells.

T1 sequence (P41146 whole entry): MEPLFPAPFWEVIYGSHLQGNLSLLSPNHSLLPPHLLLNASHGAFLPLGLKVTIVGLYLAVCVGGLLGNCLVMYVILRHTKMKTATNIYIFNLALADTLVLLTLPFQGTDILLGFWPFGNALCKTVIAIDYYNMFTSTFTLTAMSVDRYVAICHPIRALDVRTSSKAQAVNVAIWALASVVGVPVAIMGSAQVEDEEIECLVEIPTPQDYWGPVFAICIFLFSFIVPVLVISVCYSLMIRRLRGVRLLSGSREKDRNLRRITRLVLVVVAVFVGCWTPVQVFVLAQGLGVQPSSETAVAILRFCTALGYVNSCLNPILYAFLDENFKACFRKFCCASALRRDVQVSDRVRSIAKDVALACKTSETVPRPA

CC(=O)N[C@H](CCCNC(=N)N)C(=O)N[C@H](Cc1ccc(O)cc1)C(=O)N[C@H](Cc1ccc(O)cc1)C(=O)N[C@H](CCCNC(=N)N)C(=O)N[C@H](Cc1c[nH]c2ccccc12)C(=O)N[C@H](CCCCN)C(=O)N[C@H](CCCCN)C(=O)N[C@H](CCCCN)C(=O)N[C@H](CCCCN)C(=O)N[C@H](CCCCN)C(=O)N[C@H](CCCCN)C(=O)N[C@H](CCCCN)C(N)=O [Compound 8, Ac-RYYRWKKKKKKK-NH2 (all D)] (HELM PEPTIDE1{[ac].[dR].[dY].[dY].[dR].[dW].[dK].[dK].[dK].[dK].[dK].[dK].[dK].[am]}$$$$V2.0)
IC50 (hORL1 receptor [1]): 78 nM
EC50 (hORL1 receptor [2]): 59 nM
